Results from doi:10.1101/116368v1 (biorxiv, 2017).

Biological target: T1, STARD1 (StAR), STARD1^S195E, residues 66-285 (Homo sapiens, UniProt P49675, S195E)
T1 sequence (P49675 66-285 S195E): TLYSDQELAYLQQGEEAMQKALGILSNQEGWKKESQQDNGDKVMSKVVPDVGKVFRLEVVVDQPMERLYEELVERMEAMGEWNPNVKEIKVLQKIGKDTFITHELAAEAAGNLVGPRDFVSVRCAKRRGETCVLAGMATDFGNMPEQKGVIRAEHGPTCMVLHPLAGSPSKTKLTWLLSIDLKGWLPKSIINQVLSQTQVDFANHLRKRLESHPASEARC
Experiment: NBD fluorescence titration, quadratic fit
Format: binding

| SMILES | Kd [µM] |
| --- | --- |
| CC(Nc1ccc([N+](=O)[O-])c2nonc12)[C@H]1CC[C@H]2[C@@H]3CC=C4C[C@@H](O)CC[C@]4(C)[C@H]3CC[C@]12C (some centres unmarked) [20NP, 20-((NBDamino)-pregn-5-en-3-ol] | 0.026 ± 0.008 |
| CC(C)CCC[C@@H](C)[C@H]1CC[C@H]2[C@@H]3CCC4CC(Nc5ccc([N+](=O)[O-])c6nonc56)CC[C@]4(C)[C@H]3CC[C@]12C (some centres unmarked) [3NC, 3-(NBDamino)-cholestane] | 0.302 ± 0.029 |
